This note sets out measurements from patent publication US20250276977A1, “TYK2 INHIBITORS AND USES THEREOF” (Alumis Inc., priority 2019, published 2025).

The structures appear in SMILES notation. Where two headings read alike, the source gives them in different places.

For data set [1] the following is noted: cn_pd bond, 1,4-dioxane.
Data set [2] is described as follows: Pharmacokinetic studies in Sprague Dawley rats. Particulars: rat, plasma, male Sprague Dawley rats. It is filed as in vivo. On the procedure:
The pharmacokinetics of test compounds were evaluated in male Sprague Dawley rats when administered via oral gavage and IV injection. The test compound was suspended in 0.5% methylcellulose for oral gavage and dissolved in 5% DMSO/5% Solutol/90% saline for IV injection. The animals were fasted overnight before administration. Plasma samples were collected predose and at 0.5, 1, 3, 6, 9, 12, and 24 hours postdose. The samples were analyzed by LC/MS/MS and the concentration of test compound at each timepoint was determined by linear regression. Pharmacokinetic parameters were calculated from the plasma concentrations using Pheonix WinNonlin.

In a further data set the test system is INFα induced pSTAT5. As to the kind of experiment: INFα induced pSTAT5 in human PBMC. It is filed as cell-based. The settings on record: Homo sapiens, PBMC, INFα 5000 units/ml, read-out: p-STAT5 IC50. On the procedure:
Fresh Human PBMCs were resuspended in RPMI 1640 medium with 10% FBS. Cells were seeded in a round bottom 96-well plate at the concentration of 200,000 cells/well. A 10-point dilution series of test compound (top dose 10 uM, 1:5 dilution) was added to the well using the liquid dispenser (Tecan D300e) and incubated for 1 hour at 37 C. Then human INFα recombinant protein (R&D Systems) was added to the well at the final concentration of 5000 units/ml and incubated for 15 minutes at 37 C. Cell lysates were prepared and analyzed by Phospho STAT3 (Tyr705) cellular kit (Cisbio) or Phospho STAT5 (Tyr693) Kit (Meso Scale Discovery) following manufacturer's protocol.
For calculation of the inhibition rate, the relative pSTAT signal of each well=pSTAT signal of each well−the average pSTAT signal of baseline.
The inhibition %=(the average pSTAT signal of INFα treatment wells—the relative of pSTAT signal in each compound containing well)/the average pSTAT signal of INFα treatment wells * 100%
The curve was plotted as the inhibition % (y-axis) vs. compounds concentration (x-axis) and was fitted with log(inhibitor) vs. normalized response—Variable slope by GraphPad Prism7.0.

In turn, `COc1cc(F)c2cc1Nc1cc(N(C)C(=O)OC(C)(C)C)c3ncc(n3n1)C(=O)NC(C)COC2` (stereo not drawn) registered a ring closure, isolated yield in data set [1] (from COc1cc(F)c(COCC(C)NC(=O)c2cnc3c(N(C)C(=O)OC(C)(C)C)cc(Cl)nn23)cc1N, 14-membered ring, tBuXPhos-Pd-G3/Cs2CO3, 4.1 mM, 85.0 °C, 2.0 h) of 53.6%.

Turning to `CNC(=O)Oc1cc(Cl)nn2c(C(=O)NC3CC(OCc4ccc(OC)c([N+](=O)[O-])c4)C3)cnc12` (stereo not drawn), in data set [1] (the molecule shown is the open-chain precursor, 15-membered ring, tBuXPhos-Pd-G3/Cs2CO3, 50.0 mM, 80.0 °C), the ring closure, isolated yield is 20.2%.

For the compound `COc1c(F)cc2cc1Nc1cc(N(C)C(=O)OC(C)(C)C)n3ncc(c3n1)C(=O)N[C@H](C)COC2`, the ring closure, isolated yield in data set [1] (from COc1c(N)cc(COC[C@@H](C)NC(=O)c2cnn3c(N(C)C(=O)OC(C)(C)C)cc(Cl)nc23)cc1F, 14-membered ring, tBuXPhos-Pd-G3/Cs2CO3, 8.4 mM, 80.0 °C, 2.0 h) stood at 52.5%.

In turn, `COc1ccc2cc1Nc1cc(N(C)C(=O)OC(C)(C)C)c3ncc(n3n1)C(=O)N[C@H](C)CN(C)C2` yielded a ring closure, isolated yield in data set [1] (from COc1ccc(CN(C)C[C@@H](C)NC(=O)c2cnc3c(N(C)C(=O)OC(C)(C)C)cc(Cl)nn23)cc1N, 14-membered ring, Pd2(dba)3/XPhos/Cs2CO3, 56.0 mM, 95.0 °C, 3.5 h) of 10.8%.

Take `COc1cc2cnn3c2cc1Nc1cc(N(C)C(=O)OC(C)(C)C)c2ncc(n2n1)C(=O)NC(C)CC3` (stereo not drawn): the ring closure, isolated yield in data set [1] (from COc1cc2cnn(CCC(C)NC(=O)c3cnc4c(N(C)C(=O)OC(C)(C)C)cc(Cl)nn34)c2cc1N, 14-membered ring, tBuXPhos-Pd-G3/Cs2CO3, 25.0 mM, 80.0 °C, 3.0 h) worked out at 59%.

Compound `C[C@@H]1COCc2cc(c(=O)n(C)n2)Nc2cc(N(C)C(=O)OC(C)(C)C)n3ncc(c3n2)C(=O)N1` registered a ring closure, isolated yield in data set [1] (from C[C@H](COCc1cc(N)c(=O)n(C)n1)NC(=O)c1cnn2c(N(C)C(=O)OC(C)(C)C)cc(Cl)nc12, 14-membered ring, tBuXPhos-Pd-G3/Cs2CO3, 19.0 mM, 85.0 °C, 2.0 h) of 70%.

In data set [1] (from COc1nnc(COC[C@@H](C)NC(=O)c2cnn3c(N(C)C(=O)OC(C)(C)C)cc(Cl)nc23)cc1N, 14-membered ring, tBuXPhos-Pd-G3/Cs2CO3, […], 80.0 °C, 2.0 h), `COc1nnc2cc1Nc1cc(N(C)C(=O)OC(C)(C)C)n3ncc(c3n1)C(=O)N[C@H](C)COC2` displayed a ring closure, isolated yield of 21.7%.

In data set [1] (from COc1c(N)cc(COC[C@@H](C)NC(=O)c2cnc3c(NC(=O)OC(C)(C)C)cc(Cl)nn23)cc1F, 14-membered ring, tBuXPhos-Pd-G3/Cs2CO3, 8.4 mM, 80.0 °C, 2.0 h), `COc1c(F)cc2cc1Nc1cc(NC(=O)OC(C)(C)C)c3ncc(n3n1)C(=O)N[C@H](C)COC2` returned a ring closure, isolated yield of 52.5%.

Broadly, the AUC is the area under the concentration-time curve, a measure of exposure. Higher therefore signals more exposure. As a reminder, the clearance is the rate of elimination divided by the concentration. A low value points to inefficient removal. A word on the half-life: it is the time needed for the level to fall by half in the phase considered. Low readings indicate fast loss, high ones slow loss. The term Cmax denotes the peak of the concentration-time curve. Usually Tmax stands for the time from dosing to the highest level. By bioavailability is commonly meant the share of a dose that reaches the circulation, judged against a reference dose that is usually intravenous. Higher therefore signals good availability. The IC50 is the concentration needed to halve the response being measured. In data set [2] (iv, I.V. (1 mg/kg)), `CNc1cc2nn3c(cnc13)C(=O)N[C@H](C)COCc1cc(c(=O)n(C)c1)N2` [Example 15] had an AUC of 472 ± 93 ng·h/mL, a C0 of 539 ± 54 ng/mL, a clearance of 36.1 ± 8 mL/min/kg and a half-life of 1.02 ± 0.059 h. Moreover, the Vd in data set [2] (iv, I.V. (1 mg/kg), read-out: Vdss) was 2.17 ± 0.08 L/kg. Besides, in data set [2] (Oral (5 mg/kg)), the exposure (AUC) was found to be 147 ± 40 ng·h/mL, the Cmax is 22.2 ± 5 ng/mL, the Tmax is 2.67 ± 1.2 h and the bioavailability was 6.23 ± 1.7%. The same compound had a half-life in data set [2] (Oral (5 mg/kg)) of 4.11 ± 1.9 h. Moreover, in the data set with INFα induced pSTAT5, the IC50 worked out at 5.1 nM.

`COc1ccc2nc1Nc1cc(N(C)C(=O)OC(C)(C)C)n3ncc(c3n1)C(=O)N[C@H](C)COC2` displayed a ring closure, isolated yield in data set [1] (from COc1ccc(COC[C@@H](C)NC(=O)c2cnn3c(N(C)C(=O)OC(C)(C)C)cc(Cl)nc23)nc1N, 14-membered ring, Pd2(dba)3/XPhos/Cs2CO3, 6.3 mM, 95.0 °C, 3.5 h) of 84.2%.

Regarding `COc1ccc2cc1Nc1cc(N(C)C(=O)OC(C)(C)C)c3ncc(n3n1)C(=O)NC1(CC1)COC2`, the ring closure, isolated yield in data set [1] (from COc1ccc(COCC2(NC(=O)c3cnc4c(N(C)C(=O)OC(C)(C)C)cc(Cl)nn34)CC2)cc1N, 14-membered ring, tBuXPhos-Pd-G3/Cs2CO3, 15.0 mM, 85.0 °C, 2.0 h) came to 58.7%.

In data set [1] (from C[C@H](COCc1cc(N)c2cn(C)nc2c1)NC(=O)c1cnn2c(N(C)C(=O)OC(C)(C)C)cc(Cl)nc12, 14-membered ring, Pd2(dba)3/XPhos/Cs2CO3, 18.0 mM, 95.0 °C, 3.5 h), `C[C@@H]1COCc2cc(c3cn(C)nc3c2)Nc2cc(N(C)C(=O)OC(C)(C)C)n3ncc(c3n2)C(=O)N1` returned a ring closure, isolated yield of 82.2%.

In data set [1] (from COc1cc(F)c(COC[C@@H](C)NC(=O)c2cnn3c(N(C)C(=O)OC(C)(C)C)cc(Cl)nc23)cc1N, 14-membered ring, Pd2(dba)3/XPhos/Cs2CO3, 23.3 mM, 90.0 °C, 1.0 h), `COc1cc(F)c2cc1Nc1cc(N(C)C(=O)OC(C)(C)C)n3ncc(c3n1)C(=O)N[C@H](C)COC2` gave a ring closure, isolated yield of 74%.

`C[C@@H]1COCc2cc(c(=O)n(C)n2)Nc2cc(N(C)C(=O)OC(C)(C)C)c3ncc(n3n2)C(=O)N1`: in data set [1] (from C[C@H](COCc1cc(N)c(=O)n(C)n1)NC(=O)c1cnc2c(N(C)C(=O)OC(C)(C)C)cc(Cl)nn12, 14-membered ring, tBuXPhos-Pd-G3/Cs2CO3, […], 80.0 °C, 2.0 h), the ring closure, isolated yield was 78.2%.

In turn, `COc1c2cc(c(F)c1F)COC[C@@H](C)NC(=O)c1cnc3c(NC(=O)OC(C)(C)C)cc(nn13)N2` registered a ring closure, isolated yield in data set [1] (from COc1c(N)cc(COC[C@@H](C)NC(=O)c2cnc3c(NC(=O)OC(C)(C)C)cc(Cl)nn23)c(F)c1F, 14-membered ring, tBuXPhos-Pd-G3/Cs2CO3, 3.5 mM, 80.0 °C, 2.0 h) of 47%.

In turn, `C[C@@H]1COCc2ccc(F)c(c2)Nc2cc(N(C)C(=O)OC(C)(C)C)n3ncc(c3n2)C(=O)N1` returned a ring closure, isolated yield in data set [1] (from C[C@H](COCc1ccc(F)c(N)c1)NC(=O)c1cnn2c(N(C)C(=O)OC(C)(C)C)cc(Cl)nc12, 14-membered ring, tBuXPhos-Pd-G3/Cs2CO3, 20.0 mM, 85.0 °C, 2.0 h) of 30%.

Turning to `C[C@@H]1COCc2cc(c3nccn3c2)Nc2cc(N(C)C(=O)OC(C)(C)C)n3ncc(c3n2)C(=O)N1`, the ring closure, isolated yield in data set [1] (from C[C@H](COCc1cc(N)c2nccn2c1)NC(=O)c1cnn2c(N(C)C(=O)OC(C)(C)C)cc(Cl)nc12, 14-membered ring, tBuXPhos-Pd-G3/Cs2CO3, 11.5 mM, 80.0 °C, 2.0 h) came out at 72%.

The compound `COc1cc(F)c2cc1Nc1cc(NC(=O)OC(C)(C)C)c3ncc(n3n1)C(=O)N[C@H](C)COC2` came in with a ring closure, isolated yield in data set [1] (from COc1cc(F)c(COC[C@@H](C)NC(=O)c2cnc3c(NC(=O)OC(C)(C)C)cc(Cl)nn23)cc1N, 14-membered ring, tBuXPhos-Pd-G3/Cs2CO3, 10.25 mM, 80.0 °C, 2.0 h) of 56.1%.

Compound `Cc1cc2nc(n1)COC[C@@H](C)NC(=O)c1cnc3c(N(C)C(=O)OC(C)(C)C)cc(nn13)N2` registered a ring closure, isolated yield in data set [1] (from Cc1cc(N)nc(COC[C@@H](C)NC(=O)c2cnc3c(N(C)C(=O)OC(C)(C)C)cc(Cl)nn23)n1, 14-membered ring, Pd2(dba)3/XPhos/Cs2CO3, 40.0 mM, 80.0 °C, 1.0 h) of 53%.

Regarding `CNc1cc2nc3c(cnn13)C(=O)N[C@H](C)COCc1cc(c(OC)cc1F)N2` [Example 52, (R, 1^3E, 1^4E)-3^4-fluoro-3^6-methoxy-7-methyl-1^7-(methylamino)-5-oxa-2,8-diaza-1(5,3)-pyrazolo[1,5-a]pyrimidina-3(1,3)-benzenacyclononaphan-9-one], the half-inhibitory concentration (IC50) in the data set with INFα induced pSTAT5 stood at 5.9 nM.
